{"source": "patent US20030045582A1", "about": "“Method for treating hyperglycemia” (Alteon, Inc., priority 2000, published 2003)", "key": {"[1]": {"system": "patients suffering from Type I diabetes with overt diabetic nephropathy", "experiment": "Same clinical study: 24 hour urinary protein excretion", "assay_type": "in vivo, human", "method": "(§1) Renal function was measured every three months using serum creatinine levels, and creatinine clearance rates. In addition, the glomerular filtration rate was measured at entry and every six months. Study participants were treated at one of two dosage levels, (150 mg and 300 mg B.I.D.).\n(FIG. 1). The reduction was generally first observed at the first post-randomization evaluation (at three months) and increased in magnitude over the duration of the study. […] (FIG. 2)."}, "[2]": {"system": "patients suffering from Type I diabetes with overt diabetic nephropathy", "experiment": "Multicenter, randomized, double-blind, placebo-controlled study: time to doubling of baseline serum creatinine", "assay_type": "in vivo, human", "method": "as §1\nTime to doubling of baseline serum creatinine was measured. Study participants were also treated with standard measures for blood pressure control, and diabetes management, including insulin treatment, diet, and exercise. Serum creatinine levels were made at baseline and randomization visits, at the end of weeks 1-6, the end of month 2, the end of month 3, and then every 3 months for the remainder of the study. “Baseline serum creatinine” was the mean of the levels at the baseline and randomization visits. If the level at any subsequent visit was at least two times the baseline, and was confirmed by a second measurement, the patient was considered to have experienced a doubling of baseline serum creatinine. Serum creatinine levels were determined by a clinical laboratory (SciCor Inc., 8211 SciCor Drive, Indianapolis, Ind. 46214-2985)."}, "[3]": {"system": "streptozotocin-diabetic rat", "settings": "streptozotocin-diabetic rat model; cited from earlier work"}, "kidney": {"system": "kidney", "settings": "in vivo; cited from earlier work"}, "diabetic rats": {"system": "diabetic rats", "settings": "cited from earlier work"}, "[4]": {"system": "patients suffering from Type I diabetes with overt diabetic nephropathy", "experiment": "Same clinical study: progression of diabetic retinopathy, three or more steps in ETDRS scale", "assay_type": "in vivo, human"}, "[5]": {"system": "red blood cell (RBC) deformability", "settings": "in vivo; cited from earlier work"}}}
{"smiles": "N=C(N)NN", "note": "[Pimagedine, aminoguanidine]", "values": [{"measurement": "24 hour urinary protein excretion", "setting": "[1]; high dose (300 mg B.I.D.)", "result": "statistically significant reductions"}, {"measurement": "24 hour urinary protein excretion", "setting": "[1]; low dose (150 mg B.I.D.)", "result": "statistically significant reductions"}, {"measurement": "Effect on proteinuria", "setting": "[1]; patients with a baseline serum creatinine of less than 1.5 mg/dL compared with whole population", "result": "greater effect"}, {"measurement": "Patients with adjudicated doubling of serum creatinine (%)", "setting": "[2]; Baseline serum creatinine less than 1.5 mg/dL, Combined", "result": "(10%)"}, {"measurement": "Odds ratio, doubling of serum creatinine", "setting": "[2]; Baseline serum creatinine less than 1.5 mg/dL, Combined versus placebo", "result": 0.59}, {"measurement": "Patients with adjudicated doubling of serum creatinine (%)", "setting": "[2]; Baseline serum creatinine less than 1.5 mg/dL, High Dose", "result": "(10%)"}, {"measurement": "Odds ratio, doubling of serum creatinine", "setting": "[2]; Baseline serum creatinine less than 1.5 mg/dL, High Dose versus placebo", "result": 0.52}, {"measurement": "Patients with adjudicated doubling of serum creatinine (%)", "setting": "[2]; Baseline serum creatinine less than 1.5 mg/dL, Low Dose", "result": "(11%)"}, {"measurement": "Odds ratio, doubling of serum creatinine", "setting": "[2]; Baseline serum creatinine less than 1.5 mg/dL, Low Dose versus placebo", "result": 0.64}, {"measurement": "Patients with adjudicated doubling of serum creatinine (%)", "setting": "[2]; Combined doses", "result": "(20%)"}, {"measurement": "Odds ratio, doubling of serum creatinine", "setting": "[2]; Combined versus placebo", "result": 0.73}, {"measurement": "Patients with adjudicated doubling of serum creatinine (%)", "setting": "[2]; High Dose (300 mg B.I.D.), listed as pimagendine", "result": 20, "unit": "%"}, {"measurement": "Odds ratio, doubling of serum creatinine", "setting": "[2]; High Dose versus placebo", "result": 0.73}, {"measurement": "Patients with adjudicated doubling of serum creatinine (%)", "setting": "[2]; Low Dose (150 mg B.I.D.)", "result": "(20%)"}, {"measurement": "Patients with adjudicated doubling of serum creatinine (%)", "setting": "[2]; Low Dose (150 mg B.I.D.), listed as pimagendine", "result": 20, "unit": "%"}, {"measurement": "Odds ratio, doubling of serum creatinine", "setting": "[2]; Low Dose versus placebo", "result": 0.72}, {"measurement": "Reduction in the risk of doubling serum creatinine", "setting": "[2]; all patients, versus placebo", "result": 29, "unit": "%"}, {"measurement": "Patients with adjudicated doubling of serum creatinine (%)", "setting": "[2]; high dose (300 mg B.I.D.)", "result": "(20%)"}, {"measurement": "Reduction of the risk of doubling serum creatinine", "setting": "[2]; patients with a baseline serum creatinine of less than 1.5 mg/dL", "result": 63, "unit": "%"}, {"measurement": "Increased glomerular basement membrane thickness", "setting": "[3]", "result": "prevented"}, {"measurement": "Immunoglobulin trapping in the kidney", "setting": "kidney", "result": "reduction"}, {"measurement": "Aortic wall protein cross-linking", "setting": "diabetic rats", "result": "diminishes"}, {"measurement": "% of patients with a ≧ 3 step progression in ETDRS score", "setting": "[4]; Combined", "result": "(10%)"}, {"measurement": "Logistic regression model odds ratio, ≧ 3 step retinopathy progression", "setting": "[4]; Combined versus placebo", "result": 0.53}, {"measurement": "% of patients with a ≧ 3 step progression in ETDRS score", "setting": "[4]; High Dose", "result": "(8%)"}, {"measurement": "Logistic regression model odds ratio, ≧ 3 step retinopathy progression", "setting": "[4]; High Dose versus placebo", "result": 0.68}, {"measurement": "% of patients with a ≧ 3 step progression in ETDRS score", "setting": "[4]; Low Dose", "result": "(11%)"}, {"measurement": "Logistic regression model odds ratio, ≧ 3 step retinopathy progression", "setting": "[4]; Low Dose versus placebo", "result": 0.58}, {"measurement": "Incidence of progression of retinopathy from baseline to endpoint", "setting": "[4]; progression of three or more steps in ETDRS scale", "result": "decreased"}, {"measurement": "Diabetes-induced changes in the deformability of red blood cells", "setting": "[5]", "result": "prevent"}]}
